From ChEMBL document CHEMBL1144896 (2003) come the findings set out here.

For test [1], the system named is BJ. Nature of the test: Compound was tested for cytomegalovirus or (pPCMV-SEAP) activity in immortalized hTERT-BJ1 at 280 uM concentration. Format: functional, Homo sapiens.
For test [2], the system named is NCI-H1299. Nature of the test: Compound was tested for human telomerase reverse transcriptase-SEAP (hTERT-SEAP) activity in non-small cell lung cancer H1299 cell at 28.0 uM concentration. It is filed as functional.
Test [3] has as its system BJ. Nature of the test: Compound was tested for cytomegalovirus or (pPCMV-SEAP) activity in immortalized hTERT-BJ1 at 2.8 uM concentration. Format: functional, Homo sapiens.
In test [4] the test system is NCI-H1299. The test is described as follows: Compound was tested for human telomerase reverse transcriptase-SEAP (hTERT-SEAP) activity in non-small cell lung cancer H1299 cell at 280.0 uM concentration. Format: functional.
In test [5] the test system is BJ. Nature of the test: hTERT-SEAP (Human telomerase reverse transcriptase-SEAP) activity in immortalized hTERT-BJI at 2.8 uM concentration and level of cell viability determined in MTT assay. It is filed as functional. For orientation: Formazan colour is commonly taken as a measure of viable cells.
The test system of test [6] is BJ. Nature of the test: pPCMV-SEAP (cytomegalovirus-SEAP) activity in immortalized hTERT-BJ1 at 28 uM concentration and level of cell viability determined in MTT assay. Format: functional, Homo sapiens.
Test [7] concerns BJ. The test is described as follows: pPCMV-SEAP (cytomegalovirus-SEAP) activity in immortalized hTERT-BJ1 at 280 uM concentration and level of cell viability determined in MTT assay. It is filed as functional, Homo sapiens.
Test [8] concerns NCI-H1299. Nature of the test: hTERT-SEAP (Human telomerase reverse transcriptase-SEAP) activity in non-small cell lung cancer H1299 cell at 2.8 uM concentration and level of cell viability determined in MTT assay. Format: functional.
Test [9] deals with BJ. Nature of the test: Compound was tested for human telomerase reverse transcriptase-SEAP (hTERT-SEAP) activity in immortalized hTERT-BJI at 280.0 uM concentration. Format: functional.
Test [10] concerns BJ. The test is described as follows: pPCMV-SEAP (cytomegalovirus-SEAP) activity in immortalized hTERT-BJ1 at 2.8 uM concentration and level of cell viability determined in MTT assay. Format: functional, Homo sapiens.
Test [11] relates to BJ. The test is described as follows: Compound was tested for human telomerase reverse transcriptase-SEAP (hTERT-SEAP) activity in immortalized hTERT-BJI at 2.8 uM concentration. It is filed as functional.
In test [12] the test system is NCI-H1299. Nature of the test: hTERT-SEAP (Human telomerase reverse transcriptase-SEAP) activity in non-small cell lung cancer H1299 cell at 280.0 uM concentration and level of cell viability determined in MTT assay. Format: functional.
In test [13] the test system is BJ. Nature of the test: hTERT-SEAP (Human telomerase reverse transcriptase-SEAP) activity in immortalized hTERT-BJI at 28.0 uM concentration and level of cell viability determined in MTT assay. It is filed as functional.
The test system of test [14] is NCI-H1299. The test is described as follows: Compound was tested for human telomerase reverse transcriptase-SEAP (hTERT-SEAP) activity in non-small cell lung cancer H1299 cell at 2.8 uM concentration. It is filed as functional.
In test [15] the test system is BJ. The test is described as follows: Compound was tested for cytomegalovirus or (pPCMV-SEAP) activity in immortalized hTERT-BJ1 at 28 uM concentration. Format: functional, Homo sapiens.
Test [16] has as its system BJ. The test is described as follows: hTERT-SEAP (Human telomerase reverse transcriptase-SEAP) activity in immortalized hTERT-BJI at 280.0 uM concentration and level of cell viability determined in MTT assay. It is filed as functional.
Test [17] concerns NCI-H1299. The test is described as follows: hTERT-SEAP (Human telomerase reverse transcriptase-SEAP) activity in non-small cell lung cancer H1299 cell at 28 uM concentration and level of cell viability determined in MTT assay. Format: functional.
Test [18] has as its system BJ. Nature of the test: Compound was tested for human telomerase reverse transcriptase-SEAP (hTERT-SEAP) activity in immortalized hTERT-BJI at 28.0 uM concentration. It is filed as functional.
Test [19] concerns BJ. The test is described as follows: Compound was tested for human telomerase reverse transcriptase-SEAP (hTERT-SEAP) activity in immortalized hTERT-BJI at 200.0 uM concentration. It is filed as functional.
The subject of test [20] is NCI-H1299. The test is described as follows: Compound was tested for human telomerase reverse transcriptase-SEAP (hTERT-SEAP) activity in non-small cell lung cancer H1299 cell at 2.0 uM concentration. It is filed as functional.
Test [21] deals with NCI-H1299. The test is described as follows: hTERT-SEAP (Human telomerase reverse transcriptase-SEAP) activity in non-small cell lung cancer H1299 cell at 20 uM concentration and level of cell viability determined in MTT assay. Format: functional.
In test [22] the test system is NCI-H1299. The test is described as follows: Compound was tested for human telomerase reverse transcriptase-SEAP (hTERT-SEAP) activity in non-small cell lung cancer H1299 cell at 200.0 uM concentration. It is filed as functional.
In test [23] the test system is NCI-H1299. The test is described as follows: Compound was tested for human telomerase reverse transcriptase-SEAP (hTERT-SEAP) activity in non-small cell lung cancer H1299 cell at 20 uM concentration. Format: functional.
The test system of test [24] is NCI-H1299. Nature of the test: (§1) hTERT-SEAP (Human telomerase reverse transcriptase-SEAP) activity in non-small cell lung cancer H1299 cell at 2.0 uM concentration and level of cell viability determined in MTT assay. Format: functional.
For test [25], the system named is BJ. Nature of the test: hTERT-SEAP (Human telomerase reverse transcriptase-SEAP) activity in immortalized hTERT-BJI at 200.0 uM concentration and level of cell viability determined in MTT assay. It is filed as functional.
Test [26] concerns NCI-H1299. Nature of the test: hTERT-SEAP (Human telomerase reverse transcriptase-SEAP) activity in non-small cell lung cancer H1299 cell at 200.0 uM concentration and level of cell viability determined in MTT assay. Format: functional.
Test [27] deals with BJ. Nature of the test: Compound was tested for human telomerase reverse transcriptase-SEAP (hTERT-SEAP) activity in immortalized hTERT-BJI at 20 uM concentration. It is filed as functional.
Test [28] has as its system BJ. The test is described as follows: hTERT-SEAP (Human telomerase reverse transcriptase-SEAP) activity in immortalized hTERT-BJI at 20 uM concentration and level of cell viability determined in MTT assay. It is filed as functional.
The subject of test [29] is NCI-H1299. Described as §1. It is filed as functional. The source holds these as a separate data set.

For `CCC(=O)Oc1cccc2c1C(=O)c1cccc(OC(=O)CC)c1C2=O`, the “Relative SEAP activity” value was 138% with BJ [1]; 107% in the test on NCI-H1299 [2]; 101% in the test with BJ [3]; 97% with NCI-H1299 [4]; 161% with BJ [9]; 131% in the test with BJ [11]. Also, the “Relative SEAP activity” value in the test on NCI-H1299 [14] is 103%; with BJ [15], 112%; with BJ [18], 152%. Also, the Relative viability came to 99% in the test with BJ [5]; 110% in the test on BJ [6]; 94% in the test on BJ [7]; 116% in the test on NCI-H1299 [8]; 114% in the test with BJ [10]; 87% in the test on NCI-H1299 [12]. Further, the Relative viability in the test with BJ [13] came out at 109%; with BJ [16], 93%; with NCI-H1299 [17], 116%.
As for `O=C(CCc1ccccc1)Oc1cccc2c1C(=O)c1cccc(OC(=O)CCc3ccccc3)c1C2=O`, the “Relative SEAP activity” value is recorded as 110% in the test with BJ [19]; 94% in the test on NCI-H1299 [20]; 89% with NCI-H1299 [22]; 98% with NCI-H1299 [23]; 124% with BJ [27]. Also, the Relative viability came out at 101% in the test on NCI-H1299 [21]; 111% in the test with NCI-H1299 [24]; 76% in the test on BJ [25]; 54% in the test on NCI-H1299 [26]; 106% in the test on BJ [28]; 111% in the test with NCI-H1299 [29].
